The results in this text go back to ChEMBL document CHEMBL5625165, “Nine-valent oleanolic acid conjugates as potent inhibitors blocking the entry of influenza A virus” (Eur J Med Chem, 2023).

Series [1] can be described thus: Cytotoxicity against dog MDCK cells assessed as cell viability at 30 uM incubated for 48 hrs by celltiter-glo assay. Type of series: toxicity, cell-based, Canis lupus familiaris. Conditions: read-out: Activity.
In series [2] the test system is Influenza A virus. Put plainly: Antiviral activity against influenza A virus A/WSN/33(H1N1) infected in MDCK cells assessed as inhibition of viral growth at 30 uM incubated for 48 hrs by microscopic analysis. More on the design: scale not given: the % may be the effect or the level left. Type of series: functional.
Series [3] is described as follows: Cytotoxicity against dog MDCK cells assessed as reduction in cell viability incubated for 48 hrs by celltiter-glo assay. In kind it is toxicity, cell-based, Canis lupus familiaris. (In general: ATP-based viability assays read luminescence as a measure of living cells.)
A short description of series [4]: Selectivity index, ratio of CC50 for cytotoxicity against dog MDCK cells assessed as reduction in cell viability to IC50 for antiviral activity against influenza A virus A/WSN/33(H1N1) infected in MDCK cells assessed as inhibition of viral-induced cytopathic effect. Type of series: toxicity, cell-based. Particulars: read-out: Ratio CC50/IC50.
For series [5], the system named is Influenza A virus. The series can be described thus: Antiviral activity against influenza A virus B/Sichuan/531/2018 (Victoria) infected in MDCK cells assessed as inhibition of viral growth. In kind it is functional, organism-based.
Series [6] relates to Influenza A virus. The series can be described thus: Antiviral activity against influenza A virus B/Darwin/58/2019 (Yamagata) infected in MDCK cells assessed as inhibition of viral growth. Type of series: functional, organism-based.
The test system of series [7] is Influenza A virus. The series can be described thus: Antiviral activity against influenza A virus A/WSN/33(H1N1) infected in MDCK cells assessed as inhibition of viral-induced cytopathic effect incubated for 48 hrs by microscopic analysis. Type of series: functional, organism-based. In general terms: Damage to the host cells serves as the signal in cytopathic effect assays.

The nature of series [8]: Selectivity index, ratio of CC50 for cytotoxicity against dog MDCK cells assessed as reduction in cell viability to IC50 for antiviral activity against influenza A virus B/Sichuan/531/2018 (Victoria) infected in MDCK cells assessed as inhibition of viral growth. Particulars: read-out: Ratio CC50/IC50. Type of series: toxicity, cell-based.
The nature of series [9]: Selectivity index, ratio of CC50 for cytotoxicity against dog MDCK cells assessed as reduction in cell viability to IC50 for antiviral activity against influenza A virus B/Darwin/58/2019 (Yamagata) infected in MDCK cells assessed as inhibition of viral growth. Type of series: toxicity, cell-based. Conditions: read-out: Ratio CC50/IC50.
The test system of a further series is Erythrocyte. The series can be described thus: Hemolytic activity in rabbit RBC assessed as hemolysis at 300 uM incubated for 2 hr by spectrophotometry analysis. In kind it is toxicity, cell-based, Oryctolagus cuniculus.

On to `CC1(C)CC[C@]2(C(=O)O)CC[C@]3(C)C(=CC[C@@H]4[C@@]5(C)CC[C@H](O)C(C)(C)[C@@H]5CC[C@]43C)[C@@H]2C1` [OLEANOLIC_ACID], for which the viability at 48 h, 30 µM in series [1] worked out at 99%. The Activity in the series with Influenza A virus [2] turned out to be 25.06%. In addition, the CC50 at 48 h in [3] was over 100 µM. Besides, the selectivity ratio in series [4] was over 1.38.
On to `CCOC(=O)C1=C[C@@H](OC(CC)CC)[C@H](NC(C)=O)[C@@H](N)C1.O=P(O)(O)O` [OSELTAMIVIR PHOSPHATE], for which the viability at 48 h, 30 µM in series [1] was found to be 100%. The Activity in the series with Influenza A virus [2] came out at 89.22%. In addition, in series [3], the cytotoxic concentration (CC50) at 48 h is over 100 µM. The selectivity ratio in [4] is over 55. Also, the IC50 with Influenza A virus [5] and with Influenza A virus [6] was over 100 µM in each case.
`O=C1c2c(O)c(=O)ccn2N([C@@H]2c3ccccc3SCc3c2ccc(F)c3F)[C@@H]2COCCN12` [BALOXAVIR]: the IC50 in the series with Influenza A virus [7] came out at 0.009 µM; with Influenza A virus [5], 0.07 µM; in the series with Influenza A virus [6], 3.78 µM. The CC50 at 48 h in series [3] is 9.56 µM. Besides, the selectivity ratio in series [4] was 1650; in series [8] it was 137; in [9], 2.53.
Consider `CC1(C)CC[C@]2(C(=O)NCCOCCOCCn3cc(COc4cc(C(=O)NCCNC(=O)OCCn5cc(COc6cc(OCc7cn(CCOC(=O)NCCNC(=O)c8cc(OCc9cn(CCOCCOCCNC(=O)[C@]%10%11CCC(C)(C)C[C@H]%10C%10=CC[C@@H]%12[C@@]%13(C)CC[C@H](O)C(C)(C)[C@@H]%13CC[C@@]%12(C)[C@]%10(C)CC%11)nn9)c(OCc9cn(CCOCCOCCNC(=O)[C@]%10%11CCC(C)(C)C[C@H]%10C%10=CC[C@@H]%12[C@@]%13(C)CC[C@H](O)C(C)(C)[C@@H]%13CC[C@@]%12(C)[C@]%10(C)CC%11)nn9)c(OCc9cn(CCOCCOCCNC(=O)[C@]%10%11CCC(C)(C)C[C@H]%10C%10=CC[C@@H]%12[C@@]%13(C)CC[C@H](O)C(C)(C)[C@@H]%13CC[C@@]%12(C)[C@]%10(C)CC%11)nn9)c8)nn7)cc(OCc7cn(CCOC(=O)NCCNC(=O)c8cc(OCc9cn(CCOCCOCCNC(=O)[C@]%10%11CCC(C)(C)C[C@H]%10C%10=CC[C@@H]%12[C@@]%13(C)CC[C@H](O)C(C)(C)[C@@H]%13CC[C@@]%12(C)[C@]%10(C)CC%11)nn9)c(OCc9cn(CCOCCOCCNC(=O)[C@]%10%11CCC(C)(C)C[C@H]%10C%10=CC[C@@H]%12[C@@]%13(C)CC[C@H](O)C(C)(C)[C@@H]%13CC[C@@]%12(C)[C@]%10(C)CC%11)nn9)c(OCc9cn(CCOCCOCCNC(=O)[C@]%10%11CCC(C)(C)C[C@H]%10C%10=CC[C@@H]%12[C@@]%13(C)CC[C@H](O)C(C)(C)[C@@H]%13CC[C@@]%12(C)[C@]%10(C)CC%11)nn9)c8)nn7)c6)nn5)cc(OCc5cn(CCOCCOCCNC(=O)[C@]67CCC(C)(C)C[C@H]6C6=CC[C@@H]8[C@@]9(C)CC[C@H](O)C(C)(C)[C@@H]9CC[C@@]8(C)[C@]6(C)CC7)nn5)c4OCc4cn(CCOCCOCCNC(=O)[C@]56CCC(C)(C)C[C@H]5C5=CC[C@@H]7[C@@]8(C)CC[C@H](O)C(C)(C)[C@@H]8CC[C@@]7(C)[C@]5(C)CC6)nn4)nn3)CC[C@]3(C)C(=CC[C@@H]4[C@@]5(C)CC[C@H](O)C(C)(C)[C@@H]5CC[C@]43C)[C@@H]2C1`, for which, in series [1], the viability at 48 h, 30 µM was 97.2%. Also, the Activity with Influenza A virus [2] was determined as 97.28%. Besides, the IC50 in the series with Influenza A virus [7] is 18.1 µM. For the same compound, in series [3], the CC50 at 48 h is over 30 µM. Besides, the selectivity ratio in series [4] was over 1.66.
Consider `COC(=O)c1cc(OCc2cn(CCOCCOCCOCCNC(=O)c3cc(OCc4cn(CCOCCOCCOCCNC(=O)[C@]56CCC(C)(C)C[C@H]5C5=CC[C@@H]7[C@@]8(C)CC[C@H](O)C(C)(C)[C@@H]8CC[C@@]7(C)[C@]5(C)CC6)nn4)c(OCc4cn(CCOCCOCCOCCNC(=O)[C@]56CCC(C)(C)C[C@H]5C5=CC[C@@H]7[C@@]8(C)CC[C@H](O)C(C)(C)[C@@H]8CC[C@@]7(C)[C@]5(C)CC6)nn4)c(OCc4cn(CCOCCOCCOCCNC(=O)[C@]56CCC(C)(C)C[C@H]5C5=CC[C@@H]7[C@@]8(C)CC[C@H](O)C(C)(C)[C@@H]8CC[C@@]7(C)[C@]5(C)CC6)nn4)c3)nn2)c(OCc2cn(CCOCCOCCOCCNC(=O)c3cc(OCc4cn(CCOCCOCCOCCNC(=O)[C@]56CCC(C)(C)C[C@H]5C5=CC[C@@H]7[C@@]8(C)CC[C@H](O)C(C)(C)[C@@H]8CC[C@@]7(C)[C@]5(C)CC6)nn4)c(OCc4cn(CCOCCOCCOCCNC(=O)[C@]56CCC(C)(C)C[C@H]5C5=CC[C@@H]7[C@@]8(C)CC[C@H](O)C(C)(C)[C@@H]8CC[C@@]7(C)[C@]5(C)CC6)nn4)c(OCc4cn(CCOCCOCCOCCNC(=O)[C@]56CCC(C)(C)C[C@H]5C5=CC[C@@H]7[C@@]8(C)CC[C@H](O)C(C)(C)[C@@H]8CC[C@@]7(C)[C@]5(C)CC6)nn4)c3)nn2)c(OCc2cn(CCOCCOCCOCCNC(=O)c3cc(OCc4cn(CCOCCOCCOCCNC(=O)[C@]56CCC(C)(C)C[C@H]5C5=CC[C@@H]7[C@@]8(C)CC[C@H](O)C(C)(C)[C@@H]8CC[C@@]7(C)[C@]5(C)CC6)nn4)c(OCc4cn(CCOCCOCCOCCNC(=O)[C@]56CCC(C)(C)C[C@H]5C5=CC[C@@H]7[C@@]8(C)CC[C@H](O)C(C)(C)[C@@H]8CC[C@@]7(C)[C@]5(C)CC6)nn4)c(OCc4cn(CCOCCOCCOCCNC(=O)[C@]56CCC(C)(C)C[C@H]5C5=CC[C@@H]7[C@@]8(C)CC[C@H](O)C(C)(C)[C@@H]8CC[C@@]7(C)[C@]5(C)CC6)nn4)c3)nn2)c1`, for which the viability at 48 h, 30 µM in series [1] was 100%. Besides, the Activity in the series on Influenza A virus [2] is 65.08%. Also, the IC50 in the series with Influenza A virus [7] is 47.1 µM. Also, in series [3], the CC50 at 48 h is over 30 µM. For the same compound, the selectivity ratio in series [4] is over 0.64.
For `CC1(C)CC[C@]2(C(=O)NCCOCCOCCOCCOCCn3cc(COc4cc(C(=O)NCCNC(=O)OCCn5cc(COc6cc(OCc7cn(CCOC(=O)NCCNC(=O)c8cc(OCc9cn(CCOCCOCCOCCOCCNC(=O)[C@]%10%11CCC(C)(C)C[C@H]%10C%10=CC[C@@H]%12[C@@]%13(C)CC[C@H](O)C(C)(C)[C@@H]%13CC[C@@]%12(C)[C@]%10(C)CC%11)nn9)c(OCc9cn(CCOCCOCCOCCOCCNC(=O)[C@]%10%11CCC(C)(C)C[C@H]%10C%10=CC[C@@H]%12[C@@]%13(C)CC[C@H](O)C(C)(C)[C@@H]%13CC[C@@]%12(C)[C@]%10(C)CC%11)nn9)c(OCc9cn(CCOCCOCCOCCOCCNC(=O)[C@]%10%11CCC(C)(C)C[C@H]%10C%10=CC[C@@H]%12[C@@]%13(C)CC[C@H](O)C(C)(C)[C@@H]%13CC[C@@]%12(C)[C@]%10(C)CC%11)nn9)c8)nn7)cc(OCc7cn(CCOC(=O)NCCNC(=O)c8cc(OCc9cn(CCOCCOCCOCCOCCNC(=O)[C@]%10%11CCC(C)(C)C[C@H]%10C%10=CC[C@@H]%12[C@@]%13(C)CC[C@H](O)C(C)(C)[C@@H]%13CC[C@@]%12(C)[C@]%10(C)CC%11)nn9)c(OCc9cn(CCOCCOCCOCCOCCNC(=O)[C@]%10%11CCC(C)(C)C[C@H]%10C%10=CC[C@@H]%12[C@@]%13(C)CC[C@H](O)C(C)(C)[C@@H]%13CC[C@@]%12(C)[C@]%10(C)CC%11)nn9)c(OCc9cn(CCOCCOCCOCCOCCNC(=O)[C@]%10%11CCC(C)(C)C[C@H]%10C%10=CC[C@@H]%12[C@@]%13(C)CC[C@H](O)C(C)(C)[C@@H]%13CC[C@@]%12(C)[C@]%10(C)CC%11)nn9)c8)nn7)c6)nn5)cc(OCc5cn(CCOCCOCCOCCOCCNC(=O)[C@]67CCC(C)(C)C[C@H]6C6=CC[C@@H]8[C@@]9(C)CC[C@H](O)C(C)(C)[C@@H]9CC[C@@]8(C)[C@]6(C)CC7)nn5)c4OCc4cn(CCOCCOCCOCCOCCNC(=O)[C@]56CCC(C)(C)C[C@H]5C5=CC[C@@H]7[C@@]8(C)CC[C@H](O)C(C)(C)[C@@H]8CC[C@@]7(C)[C@]5(C)CC6)nn4)nn3)CC[C@]3(C)C(=CC[C@@H]4[C@@]5(C)CC[C@H](O)C(C)(C)[C@@H]5CC[C@]43C)[C@@H]2C1`, the viability at 48 h, 30 µM in series [1] was determined as 99.3%. In addition, the Activity was 53.88% with Influenza A virus [2] and “Non-Toxic” in the series with Erythrocyte. The CC50 at 48 h in [3] is over 30 µM.

Usually CC50 stands for the concentration giving 50% cytotoxicity. Usually IC50 stands for the midpoint of a concentration-inhibition curve.
